One data set addresses T1, H^+ --K^+ ATPase (Sus scrofa, UniProt P19156).
T1 construct: prepared from a gland portion of the gastric fundus of the gastiric mucosa of a fresh pig; from tissue; host or cells: gland portion of the gastric fundus mucosa, fresh pig
Description: H+-K+ ATPase activity inhibition. To be noted: pig gastric fundus gland H+-K+ ATPase; pH 7.40, 37° C., 30 min incubation; compound dissolved in methanol; read-out: inhibitory effect on H+-K+ ATPase activity, IC50. The class given is biochemical. How it is done:
H^+ --K^+ ATPase activity inhibition
(1) Preparation of H^+ --K^+ ATPase:
H^+ --K^+ ATPase was prepared from a gland portion of the gastric fundus of the gastiric mucosa of a fresh pig by the modification of a method of Saccomani et al., Biochem. and Biophys.
(2) Determination of H^+ --K^+ ATPase activity:
The compound of the present invention was incubated in various concentrations together with H^+ --K^+ ATPase and 10 μg/ml of protein in 40 mM of Tris-HCl having a pH value of 7.40 at 37° C. for 30 min. 15 mM of KCl was added thereto. 10 min after the addition, an ATPase reaction was initiated by addition of 3 mM of MgCl2 and ATP. 10 min after the initiation of the reaction, the amount of the released inorganic phosphoric acid was measured according to the method of Yoda and Hokin, Biochem. Biophys.
The test compound was dissolved in methanol prior to use.
The inhibitory effect was determined as follows. The measured value of the test compound was subtracted from the measured value of the control group to determine the difference in the measured values therebetween. The inhibitory effect was calculated as the percentage of the difference relative to the measured value of the control group. In the Table, the inhibitory effect was expressed in terms of IC50.

The conditions of data set [1]: reported, prior art; cited from earlier work.

T1 sequence (P19156 2-1034 limits assumed): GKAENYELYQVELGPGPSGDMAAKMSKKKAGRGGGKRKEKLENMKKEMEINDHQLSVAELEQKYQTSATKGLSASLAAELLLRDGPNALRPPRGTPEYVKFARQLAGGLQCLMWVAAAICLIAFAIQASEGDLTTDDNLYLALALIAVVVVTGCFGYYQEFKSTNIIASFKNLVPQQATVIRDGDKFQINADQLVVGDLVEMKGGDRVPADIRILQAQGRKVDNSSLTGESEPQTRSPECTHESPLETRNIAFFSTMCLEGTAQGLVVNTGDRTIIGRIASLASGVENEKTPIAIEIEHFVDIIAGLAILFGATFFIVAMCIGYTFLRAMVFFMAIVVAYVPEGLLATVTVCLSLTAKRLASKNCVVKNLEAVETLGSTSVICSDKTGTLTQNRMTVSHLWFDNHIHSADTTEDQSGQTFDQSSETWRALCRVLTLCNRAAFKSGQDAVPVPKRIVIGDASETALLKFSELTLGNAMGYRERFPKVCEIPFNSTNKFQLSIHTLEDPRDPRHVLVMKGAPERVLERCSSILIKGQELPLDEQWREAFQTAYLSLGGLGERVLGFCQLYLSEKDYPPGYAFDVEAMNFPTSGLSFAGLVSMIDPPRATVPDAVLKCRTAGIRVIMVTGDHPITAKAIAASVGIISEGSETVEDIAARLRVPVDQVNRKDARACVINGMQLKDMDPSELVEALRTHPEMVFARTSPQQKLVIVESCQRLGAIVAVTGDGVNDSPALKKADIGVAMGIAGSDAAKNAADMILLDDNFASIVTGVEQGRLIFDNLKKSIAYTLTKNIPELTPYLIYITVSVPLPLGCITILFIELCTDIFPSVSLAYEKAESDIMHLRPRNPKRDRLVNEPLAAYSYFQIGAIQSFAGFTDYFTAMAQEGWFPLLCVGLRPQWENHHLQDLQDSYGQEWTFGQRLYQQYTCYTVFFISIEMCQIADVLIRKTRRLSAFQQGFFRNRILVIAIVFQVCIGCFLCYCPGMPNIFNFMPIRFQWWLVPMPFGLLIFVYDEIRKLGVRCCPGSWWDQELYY
T1 sequence (P18434 whole entry partner): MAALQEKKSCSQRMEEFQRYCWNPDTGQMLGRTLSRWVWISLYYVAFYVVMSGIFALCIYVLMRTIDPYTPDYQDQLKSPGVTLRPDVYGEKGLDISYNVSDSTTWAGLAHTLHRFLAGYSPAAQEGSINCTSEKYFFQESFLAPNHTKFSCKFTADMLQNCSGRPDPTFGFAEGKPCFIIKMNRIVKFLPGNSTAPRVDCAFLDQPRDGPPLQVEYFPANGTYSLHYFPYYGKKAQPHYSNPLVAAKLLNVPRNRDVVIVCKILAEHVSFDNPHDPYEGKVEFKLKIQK

For the compound `CCCCOCCOc1ccnc(C[S+]([O-])c2nc3ccccc3[nH]2)c1C` (centres unmarked), the IC50 (usually the concentration that gives 50% inhibition) on H^+ --K^+ ATPase worked out at 1800 nM. Take `CCCCOCCOc1ccnc(C[S+]([O-])c2nc3cc(Cl)ccc3[nH]2)c1C` (centres unmarked) [No. 2]: the IC50 at H^+ --K^+ ATPase came out at 1800 nM. The same measure, in the same setting: to `CCCCOCCOc1ccnc(C[S+]([O-])c2nc3cc(C(F)(F)F)ccc3[nH]2)c1C` (centres unmarked) [No. 3] belongs 1100 nM; to `CCCCOCCOc1ccnc(C[S+]([O-])c2nc3cc(C)c(C)cc3[nH]2)c1C` (centres unmarked) [No. 4], 2200 nM. Consider `CCCCOCCOc1ccnc(C[S+]([O-])c2nc3cc(OC)ccc3[nH]2)c1C` (centres unmarked) [No. 5], for which the IC50 at H^+ --K^+ ATPase came out at 3000 nM. For `CCOCCOc1ccnc(C[S+]([O-])c2nc3ccccc3[nH]2)c1C` (centres unmarked) [No. 6], on H^+ --K^+ ATPase, the IC50 came out at 2800 nM. The same measure, in the same setting: under `CCOCCOc1ccnc(C[S+]([O-])c2nc3cc(OC)ccc3[nH]2)c1C` (centres unmarked) [No. 9] stands 3400 nM; under `COCCOc1ccnc(C[S+]([O-])c2nc3ccccc3[nH]2)c1C` (centres unmarked) [No. 10], 3300 nM; under `COCCOc1ccnc(C[S+]([O-])c2nc3cc(C(F)(F)F)ccc3[nH]2)c1C` (centres unmarked) [No. 11], 1700 nM. For the compound `COCCOc1ccnc(C[S+]([O-])c2nc3cc(OC)ccc3[nH]2)c1C` (centres unmarked) [No. 12], the IC50 at H^+ --K^+ ATPase turned out to be 5600 nM. Turning to `CN/C(=N/CCSCc1nc[nH]c1C)NC#N` [cimetidine], in data set [1], the side effects result was “antiandrogenic action or a metabolic enzymatic activity inhibitory action upon liver”.
